Tested on: plants
Test: Test D pre-emergence, other plants of Tables D1 and D3
Type: in vivo
Conditions: for damage to plant (100=total damage to plant; 0=no damage to plant), ABUTH / damage to plant (100=total damage to plant; 0=no damage to plant), AMARE / damage to plant (100=total damage to plant; 0=no damage to plant), BIDPI / damage to plant (100=total damage to plant; 0=no damage to plant), BRAPL / damage to plant (100=total damage to plant; 0=no damage to plant), CYPES / damage to plant (100=total damage to plant; 0=no damage to plant), DIGSA / damage to plant (100=total damage to plant; 0=no damage to plant), ECHCG / damage to plant (100=total damage to plant; 0=no damage to plant), ELEIN / damage to plant (100=total damage to plant; 0=no damage to plant), EPHHL / damage to plant (100=total damage to plant; 0=no damage to plant), GLXMA / damage to plant (100=total damage to plant; 0=no damage to plant), IPOHE / damage to plant (100=total damage to plant; 0=no damage to plant), ORYSA / damage to plant (100=total damage to plant; 0=no damage to plant), PANMI / damage to plant (100=total damage to plant; 0=no damage to plant), SETFA / damage to plant (100=total damage to plant; 0=no damage to plant), SORVU: preemergent, 20 DAA; for damage to plant, ALOMY / damage to plant, AVEFA / damage to plant, BEAVA / damage to plant, BROTE / damage to plant, BRSNN / damage to plant, CHEAL / damage to plant, GALAP / damage to plant, HORVW / damage to plant, KCHSC / damage to plant, LOLPE / damage to plant, POAAN / damage to plant, POLCO / damage to plant, SINAR / damage to plant, STEME / damage to plant, VERPE: pre-emergence, 100=total damage, 0=no damage
Method in brief: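 Seeds treated with herbicide safener; sown in soil; glasshouse, 16 h light, 65% humidity. Sprayed day 1 (pre) or ~day 12 (post). Spray in 0.2% v/v adjuvant. Scored 0–100 damage: 20 DAA pre, 15 d post.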

## CN1CC(c2cc(C(F)(F)F)n(C)n2)C(C(=O)Nc2ccc(F)c(F)c2F)C1=O (racemic) [Compound 17]
Rate 15
  damage to plant (100=total damage to plant; 0=no damage to plant), ABUTH: 0
  damage to plant (100=total damage to plant; 0=no damage to plant), AMARE: 0
  damage to plant (100=total damage to plant; 0=no damage to plant), BIDPI: 0
  damage to plant (100=total damage to plant; 0=no damage to plant), BRAPL: 20
  damage to plant (100=total damage to plant; 0=no damage to plant), CYPES: 0
  damage to plant (100=total damage to plant; 0=no damage to plant), DIGSA: 30
  damage to plant (100=total damage to plant; 0=no damage to plant), ECHCG: 0
  damage to plant (100=total damage to plant; 0=no damage to plant), ELEIN: 0
  damage to plant (100=total damage to plant; 0=no damage to plant), EPHHL: 0
  damage to plant (100=total damage to plant; 0=no damage to plant), GLXMA: 0
  damage to plant (100=total damage to plant; 0=no damage to plant), IPOHE: 0
  damage to plant (100=total damage to plant; 0=no damage to plant), ORYSA: 0
  damage to plant (100=total damage to plant; 0=no damage to plant), PANMI: 0
  damage to plant (100=total damage to plant; 0=no damage to plant), SETFA: 0
  damage to plant (100=total damage to plant; 0=no damage to plant), SORVU: 0
Rate 30
  damage to plant (100=total damage to plant; 0=no damage to plant), ABUTH: 0
  damage to plant (100=total damage to plant; 0=no damage to plant), AMARE: 0
  damage to plant (100=total damage to plant; 0=no damage to plant), BIDPI: 0
  damage to plant (100=total damage to plant; 0=no damage to plant), BRAPL: 60
  damage to plant (100=total damage to plant; 0=no damage to plant), CYPES: 0
  damage to plant (100=total damage to plant; 0=no damage to plant), DIGSA: 90
  damage to plant (100=total damage to plant; 0=no damage to plant), ECHCG: 90
  damage to plant (100=total damage to plant; 0=no damage to plant), ELEIN: 0
  damage to plant (100=total damage to plant; 0=no damage to plant), EPHHL: 0
  damage to plant (100=total damage to plant; 0=no damage to plant), GLXMA: 0
  damage to plant (100=total damage to plant; 0=no damage to plant), IPOHE: 0
  damage to plant (100=total damage to plant; 0=no damage to plant), ORYSA: 0
  damage to plant (100=total damage to plant; 0=no damage to plant), PANMI: 0
  damage to plant (100=total damage to plant; 0=no damage to plant), SETFA: 80
  damage to plant (100=total damage to plant; 0=no damage to plant), SORVU: 0
Rate 60
  damage to plant (100=total damage to plant; 0=no damage to plant), ABUTH: 0
  damage to plant (100=total damage to plant; 0=no damage to plant), AMARE: 0
  damage to plant (100=total damage to plant; 0=no damage to plant), BIDPI: 0
  damage to plant (100=total damage to plant; 0=no damage to plant), BRAPL: 80
  damage to plant (100=total damage to plant; 0=no damage to plant), CYPES: 0
  damage to plant (100=total damage to plant; 0=no damage to plant), DIGSA: 90
  damage to plant (100=total damage to plant; 0=no damage to plant), ECHCG: 90
  damage to plant (100=total damage to plant; 0=no damage to plant), ELEIN: 0
  damage to plant (100=total damage to plant; 0=no damage to plant), EPHHL: 0
  damage to plant (100=total damage to plant; 0=no damage to plant), GLXMA: 0
  damage to plant (100=total damage to plant; 0=no damage to plant), IPOHE: 0
  damage to plant (100=total damage to plant; 0=no damage to plant), ORYSA: 0
  damage to plant (100=total damage to plant; 0=no damage to plant), PANMI: 0
  damage to plant (100=total damage to plant; 0=no damage to plant), SETFA: 90
  damage to plant (100=total damage to plant; 0=no damage to plant), SORVU: 0
Rate 130
  damage to plant (100=total damage to plant; 0=no damage to plant), ABUTH: 0
  damage to plant (100=total damage to plant; 0=no damage to plant), AMARE: 0
  damage to plant (100=total damage to plant; 0=no damage to plant), BIDPI: 0
  damage to plant (100=total damage to plant; 0=no damage to plant), BRAPL: 80
  damage to plant (100=total damage to plant; 0=no damage to plant), CYPES: 0
  damage to plant (100=total damage to plant; 0=no damage to plant), DIGSA: 90
  damage to plant (100=total damage to plant; 0=no damage to plant), ECHCG: 90
  damage to plant (100=total damage to plant; 0=no damage to plant), ELEIN: 0
  damage to plant (100=total damage to plant; 0=no damage to plant), EPHHL: 0
  damage to plant (100=total damage to plant; 0=no damage to plant), GLXMA: 0
  damage to plant (100=total damage to plant; 0=no damage to plant), IPOHE: 0
  damage to plant (100=total damage to plant; 0=no damage to plant), ORYSA: 0
  damage to plant (100=total damage to plant; 0=no damage to plant), PANMI: 0
  damage to plant (100=total damage to plant; 0=no damage to plant), SETFA: 90
  damage to plant (100=total damage to plant; 0=no damage to plant), SORVU: 0
Rate 250
  damage to plant (100=total damage to plant; 0=no damage to plant), ABUTH: 0
  damage to plant (100=total damage to plant; 0=no damage to plant), AMARE: 0
  damage to plant (100=total damage to plant; 0=no damage to plant), BIDPI: 0
  damage to plant (100=total damage to plant; 0=no damage to plant), BRAPL: 80
  damage to plant (100=total damage to plant; 0=no damage to plant), CYPES: 0
  damage to plant (100=total damage to plant; 0=no damage to plant), DIGSA: 90
  damage to plant (100=total damage to plant; 0=no damage to plant), ECHCG: 100
  damage to plant (100=total damage to plant; 0=no damage to plant), ELEIN: 0
  damage to plant (100=total damage to plant; 0=no damage to plant), EPHHL: 0
  damage to plant (100=total damage to plant; 0=no damage to plant), GLXMA: 0
  damage to plant (100=total damage to plant; 0=no damage to plant), IPOHE: 0
  damage to plant (100=total damage to plant; 0=no damage to plant), ORYSA: 0
  damage to plant (100=total damage to plant; 0=no damage to plant), PANMI: 0
  damage to plant (100=total damage to plant; 0=no damage to plant), SETFA: 90
  damage to plant (100=total damage to plant; 0=no damage to plant), SORVU: 0
Rate 500
  damage to plant (100=total damage to plant; 0=no damage to plant), ABUTH: 10
  damage to plant (100=total damage to plant; 0=no damage to plant), AMARE: 0
  damage to plant (100=total damage to plant; 0=no damage to plant), BIDPI: 0
  damage to plant (100=total damage to plant; 0=no damage to plant), BRAPL: 90
  damage to plant (100=total damage to plant; 0=no damage to plant), CYPES: 0
  damage to plant (100=total damage to plant; 0=no damage to plant), DIGSA: 90
  damage to plant (100=total damage to plant; 0=no damage to plant), ECHCG: 100
  damage to plant (100=total damage to plant; 0=no damage to plant), ELEIN: 0
  damage to plant (100=total damage to plant; 0=no damage to plant), EPHHL: 10
  damage to plant (100=total damage to plant; 0=no damage to plant), GLXMA: 0
  damage to plant (100=total damage to plant; 0=no damage to plant), IPOHE: 0
  damage to plant (100=total damage to plant; 0=no damage to plant), ORYSA: 0
  damage to plant (100=total damage to plant; 0=no damage to plant), PANMI: 0
  damage to plant (100=total damage to plant; 0=no damage to plant), SETFA: 90
  damage to plant (100=total damage to plant; 0=no damage to plant), SORVU: 0
Rate 15, 20 DAA
  damage to plant, ALOMY: 0
  damage to plant, AVEFA: 0
  damage to plant, BEAVA: 0
  damage to plant, BROTE: 0
  damage to plant, BRSNN: 0
  damage to plant, CHEAL: 0
  damage to plant, GALAP: 0
  damage to plant, HORVW: 0
  damage to plant, KCHSC: 0
  damage to plant, LOLPE: 0
  damage to plant, POAAN: 0
  damage to plant, POLCO: 0
  damage to plant, SINAR: 0
  damage to plant, STEME: 0
  damage to plant, VERPE: 0
Rate 30, 20 DAA
  damage to plant, ALOMY: 0
  damage to plant, AVEFA: 0
  damage to plant, BEAVA: 0
  damage to plant, BROTE: 0
  damage to plant, BRSNN: 0
  damage to plant, CHEAL: 0
  damage to plant, GALAP: 0
  damage to plant, HORVW: 0
  damage to plant, KCHSC: 0
  damage to plant, LOLPE: 0
  damage to plant, POAAN: 20
  damage to plant, POLCO: 0
  damage to plant, SINAR: 0
  damage to plant, STEME: 0
  damage to plant, VERPE: 0
Rate 60, 20 DAA
  damage to plant, ALOMY: 0
  damage to plant, AVEFA: 0
  damage to plant, BEAVA: 0
  damage to plant, BROTE: 0
  damage to plant, BRSNN: 0
  damage to plant, GALAP: 0
  damage to plant, HORVW: 0
  damage to plant, KCHSC: 0
  damage to plant, LOLPE: 20
  damage to plant, POAAN: 30
  damage to plant, POLCO: 0
  damage to plant, SINAR: 0
  damage to plant, STEME: 0
  damage to plant, VERPE: 0
Rate 130, 20 DAA
  damage to plant, ALOMY: 50
  damage to plant, AVEFA: 60
  damage to plant, BEAVA: 0
  damage to plant, BROTE: 0
  damage to plant, BRSNN: 0
  damage to plant, CHEAL: 50
  damage to plant, GALAP: 0
  damage to plant, HORVW: 10
  damage to plant, KCHSC: 0
  damage to plant, LOLPE: 40
  damage to plant, POAAN: 70
  damage to plant, POLCO: 0
  damage to plant, SINAR: 0
  damage to plant, STEME: 10
  damage to plant, VERPE: 30
Rate 250, 20 DAA
  damage to plant, ALOMY: 60
  damage to plant, AVEFA: 70
  damage to plant, BEAVA: 0
  damage to plant, BROTE: 40
  damage to plant, BRSNN: 0
  damage to plant, CHEAL: 60
  damage to plant, GALAP: 0
  damage to plant, HORVW: 40
  damage to plant, KCHSC: 10
  damage to plant, LOLPE: 80
  damage to plant, POAAN: 80
  damage to plant, POLCO: 20
  damage to plant, SINAR: 0
  damage to plant, STEME: 30
  damage to plant, VERPE: 60
Rate 500, 20 DAA
  damage to plant, ALOMY: 80
  damage to plant, AVEFA: 80
  damage to plant, BEAVA: 10
  damage to plant, BROTE: 60
  damage to plant, BRSNN: 20
  damage to plant, CHEAL: 70
  damage to plant, GALAP: 20
  damage to plant, HORVW: 90
  damage to plant, KCHSC: 30
  damage to plant, LOLPE: 80
  damage to plant, POAAN: 90
  damage to plant, POLCO: 30
  damage to plant, SINAR: 0
  damage to plant, STEME: 60
  damage to plant, VERPE: 90

From US20220281848A1, “PYRAZOLE-SUBSTITUTED PYRROLIDINONES AS HERBICIDES” (FMC Corporation, priority 2019, published 2022)
